Test results taken from patent US20050037975A1, “Method for treatment of glutamate related disorders” (priority 1997, published 2005).
Marks after values point to notes of the source that are not given here.

How the values were obtained:
ALDH2 = experiment: In vitro inactivation of aldehyde dehydrogenase; assay type: biochemical
Protocol: To test whether the protective effect of DETC-MeSO in hyperbaric O2-induced convulsions in mice could be due to inhibition of succinic semi-aldehyde dehydrogenase (SSA DH), mechanistically related to ALDH2, the sensitivity of SSA DH to inactivation by DETC-MeSO was determined. Potentially, inhibition of SSA DH in brain could offset the build up of ammonia known to occur and produce more GABA. In vitro both ALDH2 and SSA DH are inactivated by DETC-MeSO at 47 M-1 s-1 and 300 M-1 s-1, respectively.

[1] = Carbamoylation of glutathione by DETC-MeSO under physiological conditions
Description: This rate of reaction was approximate an order of magnitude faster than that of the more familiar α-haloketone functionality.

[2] = test system: brain glutamate receptors (synaptic membranes); experiment: Glutamate binding to synaptic membranes isolated from treated mice; assay type: in vivo, mouse
Protocol: Binding Studies—Synaptic membranes (100 μg protein) were isolated (Y. H. Lee et al., J. Neurosci. Res. 40, 797-806 (1995)) form whole brain homogenate of male Swiss Webster mice and were incubated in 0.1 mM L-glutamate for 30 minutes at 25° C. After addition of 50 nM of [^3H]glutamate, incubation was continued for an additional 45 minutes. Reactions were terminated by centrifugation at 4° C. to separate membrane-bound from free radioactivity. Nonspecific binding (radioactivity bound in the presence of 0.5 mM unlabeled glutamate) averages: 20-30% of total radioactivity bound. The rate (k) and maximum percent blockage of glutamate binding (M) by DETC-MeSO (1) during the incubation time (t) was determined by fitting the equation [% inhibition]=M(1−e^−kh) to these day by use of the program Grafit (Erithicus Software Ltd.). This equation was derived for first-order inactivation by a group specific reagent that gives a partial effect. If “A” is the percent of binding activity that remains after extensive exposure (t=of the receptor to excess DETC-MeSO, then M=100−A)e^−kh+A; substituting (100−M) for “A” and [100−% inhibition] for “a” in this equation gives the one employed for purposes of data analyses. […] A second equation was employed in the analysis of binding data that defines partial, irreversible inactivation of two distinct groups of receptors [% inhibition]=M1(1−e^−k1^IT)+M2(1−e^−k1^IT), where M1 and M2 are the maximum amount of inhibition obtained for complete modification of each receptor population and k1 and k2 are the rate constants for these modifications, respectively.
Synaptic membranes were prepared from the brains of mice injected with DETC-MeSO (5.2 mg/kg, i.p.). The ability of synaptic membrane preparations isolated from DETC-MeSO-treated mice to bind glutamate was compared with similar preparations isolated from control animals. FIG. 3(A) illustrates the results obtained from synaptic membranes prepared from brains of mice killed two hours after a single dose of DETC-MeSO, or two hours after the last injection of multiple consecutive doses (5.2 mg/kg, i.p., daily for seven days). Either single or multiple dosing with DETC-MeSO reduced the capacity of synaptic membranes to bind glutamate by approximately 50%, the maximum effect obtained in vitro (FIG. 3). Each bar represents the average of results obtained from four animals and the error bars are for one standard deviation.

[3] = test system: oxygen-induced seizures (5 ATA O2); experiment: Hyperbaric oxygen-induced seizures in mice; assay type: in vivo
Protocol: Animals—Male Swiss Webster mice (20-30 g) or male Sprague-Dawley rats (250-300 g) were used. All that employed animals were conducted in strict compliance with the NIH guidelines on animal use and institutional regulations concerning animal experimentation. Animals were exposed to hyperbaric oxygen in a specify designed press chamber as previously described (M. D. Faiman et al., Biochem. Pharmacol., 20, 3049-3067 (1971); M. D. Faiman et al. Aerosp. Med.,45, 29032.(1974)). The time to first clonic-tonic seizure after brining animals to a final pressure of five atmospheres of 100% oxygen or after intraperitoneal injection of convulsants was noted by. criteria outlined previously (M. D. Faiman et al. (1971), supra M. D. Faiman et al. (1974), supra). Unless otherwise specified, the ability of DETC-MeSO to prevent seizures was tested by intraperitoneal injection of 5.2 mg/kg of DETC-MeSO 1-2 hours prior to bringing the animal to a final pressure of 5 atmospheres of 100% oxygen or intraperitoneal injection of N-methyl-D-asparate (NMA) (125 mg/kg) r L-methionine sulfoximine (MetSOX) (250 mg/kg). Evaluation of the statistics for whole animal experiments or for changes in brain glutamate binding after administration of DETC-MeSO was conducted by use of the program GraphPAD InStat from Graph PAD Software (San Diego, Calif.).

CCN(CC)C(=O)[S+](C)[O-] (stereo not drawn) [DETC-MeSO, S-Methyl-N,N-Diethylthiolcarbamate Sulfoxide]
inactivation rate of ALDH2 (ALDH2; in vitro): 47 M⁻¹ s⁻¹ | rate for enzyme (ALDH) inactivation (ALDH2; under physiological conditions): 40 M⁻¹ s⁻¹ | rate of carbamoylation of the sulfhydryl group of glutathione (GSH) ([1]; 37° C., pH 7): 10 M⁻¹ s⁻¹ | conversion to DETC-GS ([1]; GSH 1-6 mM, within 5 minutes): > 95% | DETC-MeSO remaining ([1]; blood, GSH 1 mM, after 5 minutes): less than 5% | DETC-MeSO remaining ([1]; liver, after one minute): less than 3% | irreversible brain glutamate receptor blockage ([2]; 30 μmol/kg intravenous, mice): 38.2±1.6% | reduction of capacity of synaptic membranes to bind glutamate ([2]; 5.2 mg/kg i.p. daily for seven days, killed two hours after last injection): approximately 50% | inhibition of glutamate binding ([2]; single dose 5.2 mg/kg i.p., killed 24 hours after): less inhibition | reduction of capacity of synaptic membranes to bind glutamate ([2]; single dose 5.2 mg/kg i.p., killed two hours after): approximately 50% | effect on oxygen-induced seizures ([3]; 5.2 mg/kg i.p. 2 hours before 5 atmospheres of 100% oxygen, mice): prevented the seizures | number of animals that exhibited the effect/total number of animals in the group ([3]; 5 ATA 100% O2, mice): (0/5)^a | mean time to seizure ([3]; 5 ATA 100% O2, mice, 5.2 mg/kg i.p. prior, observation one hour): >60^a min
